Assay results: patent US11969408B2, “Method for improving mitophagy in subjects” (Amazentis SA, priority 2017, dated 2024)

What was measured:
Format in all cases: in vivo, human
[1] = system: muscle and mitochondrial gene sets in vastus lateralis; assay: Microarray analysis / Gene Set Enrichment Analysis of skeletal muscle biopsies
Experimental: Muscle biopsies were collected on Day −1 and Day 28 at pre-dose under fasted state using the Bergström biopsy needle technique. The minimal amount of each muscle tissue sample was approximately 50 mg. One third of the tissue was used for gene expression (≈50 mg), and was further divided into two equal portions: one portion for RNA analysis (≈25 mg) and one portion for DNA analysis (≈25 mg), both in a Safe-lock Tubes 2.0 ml, Eppendorf (part no. 0030.120.094). Muscle tissue was snap frozen using liquid nitrogen immediately after collection and further, long term storage will be in a −80° C. freezer. The mRNA was analysed by microarray. Quantification of mtDNA over nuclear DNA provided another measure of mitochondrial abundance. The shipment was done in dry ice by specialized carrier. Temperatures were monitored using data logger during all transport. Gene expression on available remaining muscle tissues samples was performed by microarrays. […] Microarray analysis was carried out on skeletal muscle biopsies of human subjects administered urolithin A or placebo daily for 28 days. Approximately 30,000 gene transcripts were quantified by microarray in muscle biopsies and compared (day 28 vs. day −1). Gene Set Enrichment Analysis was conducted on 6166 gene sets. […]

[2] = Steady state plasma levels of total Urolithin A over 4-week dosing; settings: Day 31 and Day 32
Experimental: A double-blind, randomized, placebo controlled clinical trial was conducted in healthy elderly to establish the steady state levels of Urolithin A in plasma. Elderly subjects (61-82 years) (n=9), participated in each group of dosing. The subjects met all the inclusion and exclusion criteria of the study and signed informed consent. The subjects were overnight fasted and the plasma was collected in the morning before breakfast to assess steady state levels. Subjects were given a dose of Urolithin or placebo each morning for the 28 day trial. The urolithin A was given as softgel capsules containing 250 mg of Urolithin A in each capsule. Plasma samples were collected for assessment of Urolithin A steady state concentrations in the 4-week Urolithin A study at the following time points (Day 0, Day 7, Day 14, Day 28, Day 29, Day 31, and Day 32). […] On day 28 the subjects were admitted to a Phase 1 clinical trial unit and the kinetics of Urolithin A absorption, and elimination following multiple 4-week dosing were followed until 96 hours following the last dosing on Day 28. Plasma was collected at the following time-points post last dosing with Urolithin A on Day 28: pre-dose, 1 hr, 2 hr, 4 hr, 6 hr, 8 hr, 12 hr, 24 hr, 72 hr and 96 hr. […] The exact time of sample collection was recorded on the eCRF (electronic case report from). […]

[3] = system: pyruvate, lactate and glucose in plasma; assay: Plasma metabolomics: pyruvate, lactate, glucose plasma levels; settings: 1000 mg cohort, day −1 to day 28
Experimental: Blood sampling was performed for analysis on plasma at the exact time-points described in the table below: Blood handling procedures: at each time point indicated in the table, a 6 mL blood sample was drawn into K2-EDTA coated tube. The blood samples were gently inverted a few times for complete mixing with the anticoagulant. The exact time of sample collection was recorded on the eCRF. Within 30 minutes following blood collection, each blood sample was centrifuged at 1500 g for 10 minutes at 4° C. 30 minutes after the centrifugation, the top layer of human plasma was transferred into 2 pre-labelled polypropylene tubes, containing approximately 1500 μL of plasma. Blood cells were not transferred. All sample tubes were clearly and appropriately labelled. Tubes were capped immediately from each time point and the plasma was be frozen in an upright position at approximately −80° C. for storage. Measurement of metabolites: Samples were extracted and split into equal parts for analysis on the LC/MS/MS and Polar LC platforms. Proprietary software was used to match ions to an in-house library of standards for metabolite identification and for metabolite quantitation by peak area integration. A total of 781 metabolites were quantified. Metabolomics is the study of known measurable metabolites in a sample. […]

steady state levels after the end of the 4-week UA administration [2]: gradually declined
Structure (SMILES): O=c1oc2cc(O)ccc2c2ccc(O)cc12 [Urolithin A]
enrichment in GO_MITOCHONDRION genes expression ([1]; 1000 mg urolithin A group vs placebo group, 28 day treatment): significant | mitochondrial and muscle gene sets expression (normalized enrichment score) ([1]; 1000 mg/day for 28 days, day 28 vs day −1, compared with placebo, FDR<0.25): significantly upregulated | pyruvate, lactate and glucose levels in plasma [3]: no significant change
